Format in all cases: cell-based, human
Data set [1] concerns HCT116N and HCT116O cells. The data set is described as follows: Cell cycle distribution flow cytometry assay (PI). As to conditions: 20 μM, 24 and 48 hours. How it is done: Cells were harvested from adherent culture by trypsinization and washed with cold PBS. The resultant pellet was resuspended in PBS (chilled to 4° C.), and ice-cold ethanol was added dropwise to a final concentration of 70% (v/v), with continuous gentle agitation. Cells were fixed at 4° C. for 30 minutes and stored for up to one week. Prior to analysis, the fixed cells in 70% ethanol were diluted 1:3 in cold PBS and centrifuged at 1,400×g for 5 minutes. The resultant pellet was washed twice and resuspended in ice-cold PBS. Ribonuclease was added to a final concentration of 30 μg/mL and the cells were incubated overnight at 4° C. The next day propidium iodide was added to a final concentration of 20 μg/mL and cells were analyzed by flow cytometry. Data analysis was performed using the FloJo software package (v 8.7.1).

The test system of data set [2] is HCT116N and HCT116O cells. The data set is described as follows: ICP-MS assay for cellular rhodium levels, whole cell lysates. Particulars: 10 μM; 48 hours; compared to [Rh(bpy)2chrysi]^3+ or [Rh(NH3)4chrysi]^3+. As for the experimental part:
To assay the subcellular localization of the rhodium complexes, an inductively coupled plasma mass spectrometry (ICP-MS) assay was used to quantify the uptake of the complexes in both whole cell extracts and nuclear and mitochondrial fractions.
Each cell line was treated with 10 μM of each rhodium complex as indicated in FIG. 33A (except [Rh(DIP)2(chrysi]^3+ which was administered at 2 μM) for 1, 3, 6, 12, 24, or 48 hours. After rhodium incubation, the cells were harvested from adherent culture by trypsinization, washed with cold PBS, and counted by hemacytometer. The samples were pelleted and resuspended in 1% HNO3 (v/v), homogenized by three freeze/thaw cycles in liquid nitrogen, and analyzed for rhodium content on an HP-4500 ICP-MS unit. Rhodium counts were normalized to the number of cells counted in each sample before lysate preparation. Standard errors for three independent experiments are shown.

Another data set deals with HCT116N cells. The data set is described as follows: MTT cytotoxicity assay. As to conditions: 72 hours. As for the experimental part: Cytotoxicity assays were performed as described in Mosmann, 1983, J. Immunol. Methods, 65, 55-63, the entire contents of which is incorporated herein by reference. HCT116N and HCT116O cells were plated in 96-well plates at 50,000 cells/well and incubated with rhodium for the durations specified. After incubation with the indicated rhodium complexes, cells were labeled with MTT for 4 hours at 37° C. under 5% CO2 and humidified atmosphere. The resulting formazan crystals were dissolved with solubilizing reagent purchased from Roche according to the manufacturer's instructions. The dissolved formazan was quantified as the absorbance at 570 nm minus the background absorbance at 690 nm. Percent viability was determined as the ratio of the amount of formazan in the treated cells to that of the untreated cells.
In order to elucidate the mechanism of action for the cytotoxicity caused by a metalloinsertor complex of Formula I, the MTT cytotoxicity assay was repeated in the absence and presence of the pan-caspase inhibitor Z-VAD-FMK. This inhibitor works by irreversibly binding to the active site of caspases which participate in the apoptotic pathway. Z-VAD-FMK was added to a final concentration of 20 μM. The HCT116N and HCT116O cell lines were treated with 0-30 μM of the [Rh(HDPA)2chrysi]^3+ complex for 24-72 hours. In addition, each treatment was also combined with the inhibitor at a final concentration of 20 μM.
In order to determine the mechanism of action for cytotoxicity caused by a metalloinsertor complex of Formula I, the MTT cytotoxicity assay was repeated in conjunction with a panel of poly-ADP ribose polymerase (PARP) inhibitors: DPQ, 3-AB, 4-AN, and ABT-888, as described in Costantino et al., 2001, J. Med. Chem., 44, 3786-3794; Purnell et al., 1980, Biochem. J. 185, 775-777; Banasik et al., 1992, J. Biol. Chem. 267, 1569-1575; and Donawho et al., 2007, Clin. Cancer Res., 13, 2728-2737, the entire contents of all of which are incorporated herein by reference. […]

Regarding [Rh(HDPA)2chrysi]^3+, the “effect on the cell cycle” value in data set [1] is recorded as “disruption of the cell cycle”. Further, in data set [2], the “cellular uptake (rhodium accumulation in whole cell lysates)” value is reported as “increase in cellular uptake”. Also, in the data set with HCT116N cells (20 μM), the “number of viable HCT116N cells, % of untreated controls” value is reported as 80±5.2%. The “cell viability HCT116N with caspase inhibitor” value with HCT116N cells (30 μM metal complex, with Z-VAD-FMK at 20 M (so in the source)) was 52±9.8%. In the data set with HCT116N cells (30 μM metal complex, without inhibitor), the “cell viability HCT116N” value was 63±5.7%.
